From paper PMC9144480 (Pharmaceuticals, 2022)
Where two headings read alike, the source gives them in different places.

Columns and labels:
[1] = test system: pseudovirus bearing SARS-CoV-2 S protein, delta (B.1.617.2) variant; experiment: microbe, parasite or virus in culture; format: cell-based; settings: HEK-293T, read-out: IC50, inhibition of cell entry of pseudovirus (delta var.)
[2] = test system: SARS-CoV-2 spike protein pseudotyped VSV-ΔG; experiment: microbe, parasite or virus in culture; format: cell-based
[3] = Severe acute respiratory syndrome coronavirus 2, Vero C1008, read-out: IC50, inhibition of VSV-ΔG pseudovirus entry

Row | SMILES | IC50 [1] [µM] | IC50 [2, 3] [µM] | IC50 ([2]; read-out: IC50, inhibition of VSV-ΔG pseudovirus entry) [µM]
1 | O=S(=O)(O)c1ccc(N=Nc2c(O)ccc3cc(S(=O)(=O)O)ccc23)cc1 [SY(FD&C#6), sunset yellow FCF] | > 500 | > 250 | 
2 | Nc1c(/N=N/c2ccc([N+](=O)[O-])cc2)c(S(=O)(=O)O)cc2cc(S(=O)(=O)O)c(/N=N/c3ccccc3)c(O)c12 [NBlBk, naphthol blue black] | 388 |  | 
3 | CN(C)c1ccc2nc3ccc(=[N+](C)C)cc-3sc2c1 [MeBlu, methylene blue] | 4.7 | 2.5 | 2.46
4 | CCN(CCO)CCCC(C)Nc1ccnc2cc(Cl)ccc12 (stereo not shown) [HCQ, hydroxychloroquine] | 75.1 |  | 
